Experiments:
[1] = target: T1, Wee-1 kinase (Homo sapiens, UniProt P30291); assay: Measurement of Wee-1 kinase activity (ADP-Glo luminescent kit); assay type: biochemical
T1 construct: purchased Invitrogen PV3817
Procedure: Method 1: Measurement of Wee-1 Kinase Activity
In the measurement of Wee-1 activity, a commercial peptide Poly(Lys Tyr (4:1)) hydrobromide was purchased from Sigma Aldrich and used as the substrate. Activated Wee-1 kinase was purchased from Invitrogen (PV3817) and an ADP-Glo luminescent kit was purchased from Promega.
All reactions took place in […] volumes in reaction buffer containing 40 mM Tris-HCl and 20 mM magnesium chloride, supplemented with 0.1 mg/mL bovine serum albumin and 2 mM DTT. Compounds were serially diluted in buffer and 5 μL of each concentration pipetted into a white 384 well plate (Sigma Aldrich M6186). A 5 μL aliquot of the Wee-1 enzyme was added to each well and the plate centrifuged for 1 min to ensure mixing of the enzyme and inhibitor.
The plate was incubated at room temperature for 30 minutes before the addition of 2.0 μg/mL of substrate and 30 μM ATP in a 5 μL aliquot. The plate was centrifuged for one minute and incubated for 1 h at RT.
15 µL of ADP-Glo stop reagent was added to each well to quench the reaction and deplete unconverted ATP. The plate was incubated for a further 40 min in the dark at RT.
30 μL of ADP-Glo kinase detection reagent was added to each well, converting ADP to ATP, catalysing the generation of luciferin by luciferase. The plate was shaken for 1 min, and incubated in the dark for an additional hour.
Luminescence from each well was detected using the Biotek Synergy4 HD plate reader and the percentage inhibition of kinase activity calculated for each inhibitor tested. Positive (kinase only) and negative (no kinase) controls were added to each plate to ensure specific interaction of kinase and inhibitor. The IC50 concentration for each inhibitor was calculated by plotting the percentage kinase inhibition against concentration of inhibitor and the curve generated by non-linear regression fitting.

[2] = CLint estimates using human liver microsomes (Method 4); assay type: in vitro ADME; settings: pH 7.4, 1 μM compound, read-out: Mics - CLint (HLM CLint)
Procedure: Method 4: Determination of CLint Estimates Using Human liver microsomes Test compounds (final concentration=1 μM; final DMSO concentration=0.1%) were incubated in 0.1 M phosphate buffer pH 7.4 with human liver microsomes (0.5 mg of protein/mL) at 37° C. Reactions were started by addition of NADPH in 0.1 M phosphate buffer pH 7.4 (final concentration 1 mM). 40 μL aliquots were removed at 2, 5, 10, 15, 20, 30, 40 and 50 min. Reactions were quenched in 80 μL of ice-cold methanol. Samples were subsequently frozen overnight then centrifuged at 3500 rpm for 20 min at 4° C. The supernatants were removed and transferred into analytical plates and analysed by LC/MS/MS. LC/MS/MS Method: All samples were analysed on a Waters Acquity I-Class coupled to a Waters Xevo TQD mass spectrometer. A Waters BEH C18 2.1×50 mm 1.7 μm column was used and mobile phases were water and methanol containing 0.1% formic acid as modifier. Analysis was by multiple reaction monitoring and conditions were optimised for each test compound. Data Analyses: From a plot of 1n peak area against time, the gradient of the line is determined. Subsequently, half-life and intrinsic clearance are calculated using the following equations. [formula] [formula] [formula] where V=Incubation volume (μL)/number of cells Method 5: Determination of Kinetic Solubility (in PBS Buffer)

T1 sequence (P30291 whole entry): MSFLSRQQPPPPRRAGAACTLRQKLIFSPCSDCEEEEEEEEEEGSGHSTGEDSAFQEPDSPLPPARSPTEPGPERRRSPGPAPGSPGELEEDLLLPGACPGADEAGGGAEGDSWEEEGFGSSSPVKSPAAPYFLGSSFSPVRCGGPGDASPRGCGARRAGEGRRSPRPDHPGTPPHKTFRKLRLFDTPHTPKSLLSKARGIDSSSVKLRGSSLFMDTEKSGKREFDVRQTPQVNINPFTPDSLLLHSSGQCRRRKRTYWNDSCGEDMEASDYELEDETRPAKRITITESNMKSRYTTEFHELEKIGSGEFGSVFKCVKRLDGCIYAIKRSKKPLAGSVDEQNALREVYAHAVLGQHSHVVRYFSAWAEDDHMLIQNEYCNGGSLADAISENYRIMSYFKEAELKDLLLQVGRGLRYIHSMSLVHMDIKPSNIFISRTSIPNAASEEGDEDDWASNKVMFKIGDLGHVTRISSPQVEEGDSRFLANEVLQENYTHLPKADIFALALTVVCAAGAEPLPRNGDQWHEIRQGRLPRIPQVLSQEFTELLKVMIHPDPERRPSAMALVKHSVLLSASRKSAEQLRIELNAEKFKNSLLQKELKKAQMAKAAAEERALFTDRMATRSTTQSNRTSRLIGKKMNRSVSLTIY

Row | Compound | IC50 [1] | microsomal CLint at 1 μM [2]
1 | COC[C@@H]1CN(c2ccc(Nc3ncc4c(n3)N(C)CN(c3c(Cl)cccc3Cl)C4=O)cc2)CCN1C [Example 66, (S)-3-(2,6-dichlorophenyl)-7-((4-(3-(methoxymethyl)-4-methylpiperazin-1-yl)phenyl)amino)-1-methyl-2,3-dihydropyrimido[4,5-d]pyrimidin-4(1H)-one] | 0.01 to 0.1 µM | 15 to 50 µL/min/mg
2 | Cc1cccc(Cl)c1N1CN(C)c2nc(Nc3ccc(N4C[C@H](C)NC[C@H]4C)cc3)ncc2C1=O [Example 102, 3-(2-chloro-6-methylphenyl)-7-((4-((2R,5S)-2,5-dimethylpiperazin-1-yl)phenyl)amino)-1-methyl-2,3-dihydropyrimido[4,5-d]pyrimidin-4(1H)-one] | 0.01 to 0.1 µM | ≤ 15 µL/min/mg
3 | CNCc1cc(Nc2ncc3c(n2)N(C)CN(c2c(Cl)cccc2Cl)C3=O)ccc1OC [Example 159, 3-(2,6-dichlorophenyl)-7-((4-methoxy-3-((methylamino)methyl)phenyl)amino)-1-methyl-2,3-dihydropyrimido[4,5-d]pyrimidin-4(1H)-one] | 0.01 to 0.1 µM | ≤ 15 µL/min/mg
4 | CN1CN(c2c(Cl)cccc2Cl)C(=O)c2cnc(Nc3ccc(N4CCCCC4)c(CO)c3)nc21 [Example 131, 3-(2,6-dichlorophenyl)-7-((3-(hydroxymethyl)-4-(piperidin-1-yl)phenyl)amino)-1-methyl-2,3-dihydropyrimido[4,5-d]pyrimidin-4(1H)-one] | ≥ 0.1 µM | ≥ 50 µL/min/mg
5 | COCc1cc(Nc2ncc3c(n2)N(C)CN(c2ccccc2Cl)C3=O)ccc1N1CCNCC1 [Example 108, 3-(2-chlorophenyl)-7-((3-(methoxymethyl)-4-(piperazin-1-yl)phenyl)amino)-1-methyl-2,3-dihydropyrimido[4,5-d]pyrimidin-4(1H)-one] | 0.01 to 0.1 µM | ≤ 15 µL/min/mg
6 | CN1CN(c2ccccc2Cl)C(=O)c2cnc(Nc3ccc(N4CC5CCC(C4)N5C)c(CO)c3)nc21 [Example 97, 3-(2-chlorophenyl)-7-((3-(hydroxymethyl)-4-(8-methyl-3,8-diazabicyclo[3.2.1]octan-3-yl)phenyl)amino)-1-methyl-2,3-dihydropyrimido[4,5-d]pyrimidin-4(1H)-one] | 0.01 to 0.1 µM | ≤ 15 µL/min/mg
7 | C[C@@H]1CN(c2ccc(Nc3ncc4c(n3)N(C)CN(c3c(Cl)cccc3Cl)C4=O)c(F)c2)CCN1 [Example 142, (R)-3-(2,6-dichlorophenyl)-7-((2-fluoro-4-(3-methylpiperazin-1-yl)phenyl)amino)-1-methyl-2,3-dihydropyrimido[4,5-d]pyrimidin-4(1H)-one] | ≥ 0.1 µM | 15 to 50 µL/min/mg
8 | CN1CCC(Oc2ccc(Nc3ncc4c(n3)N(C)CN(c3c(Cl)cccc3Cl)C4=O)cc2)CC1 [Example 90, 3-(2,6-dichlorophenyl)-1-methyl-7-((4-((1-methylpiperidin-4-yl)oxy)phenyl)amino)-2,3-dihydropyrimido[4,5-d]pyrimidin-4(1H)-one] | 0.01 to 0.1 µM | 15 to 50 µL/min/mg
9 | C[C@@H]1CN(c2ccc(Nc3ncc4c(n3)N(C)CN(c3ccccc3Cl)C4=O)cc2)[C@@H](C)CN1 [Example 111, 3-(2-chlorophenyl)-7-((4-((2S,5R)-2,5-dimethylpiperazin-1-yl)phenyl)amino)-1-methyl-2,3-dihydropyrimido[4,5-d]pyrimidin-4(1H)-one] | 0.01 to 0.1 µM | ≤ 15 µL/min/mg
10 | CN1CN(c2c(Cl)cccc2Cl)C(=O)c2cnc(Nc3ccc(N4CCN[C@H](CO)C4)c(F)c3)nc21 [Example 48, (S)-3-(2,6-dichlorophenyl)-7-((3-fluoro-4-(3-(hydroxymethyl)piperazin-1-yl)phenyl)amino)-1-methyl-2,3-dihydropyrimido[4,5-d]pyrimidin-4(1H)-one] | 0.01 to 0.1 µM | ≤ 15 µL/min/mg
11 | CNCc1cc(Nc2ncc3c(n2)N(C)CN(c2c(Cl)cccc2Cl)C3=O)ccc1-c1cccnc1 [Example 156, 3-(2,6-dichlorophenyl)-1-methyl-7-((3-((methylamino)methyl)-4-(pyridin-3-yl)phenyl)amino)-2,3-dihydropyrimido[4,5-d]pyrimidin-4(1H)-one] | 0.01 to 0.1 µM | 15 to 50 µL/min/mg
12 | CCN1CCN(c2ccc(Nc3ncc4c(n3)N(C)CN(c3c(Cl)cccc3Cl)C4=O)cc2)CC1 [Example 122, 3-(2,6-dichlorophenyl)-7-((4-(4-ethylpiperazin-1-yl)phenyl)amino)-1-methyl-2,3-dihydropyrimido[4,5-d]pyrimidin-4(1H)-one] | 0.01 to 0.1 µM | 15 to 50 µL/min/mg
13 | CN1CN(c2c(Cl)cccc2Cl)C(=O)c2cnc(Nc3ccc(N4CCN(C)[C@@H](CO)C4)cc3)nc21 [Example 34, (R)-3-(2,6-dichlorophenyl)-7-((4-(3-(hydroxymethyl)-4-methylpiperazin-1-yl)phenyl)amino)-1-methyl-2,3-dihydropyrimido[4,5-d]pyrimidin-4(1H)-one] | 0.01 to 0.1 µM | 15 to 50 µL/min/mg
14 | CN1CN(c2c(Cl)cccc2Cl)C(=O)c2cnc(Nc3ccc(N4CC5CNCC5C4)cc3)nc21 (stereo not shown) [Example 36, 3-(2,6-dichlorophenyl)-7-((4-(hexahydropyrrolo [3,4-c]pyrrol-2(1H)-yl)phenyl)amino)-1-methyl-2,3-dihydropyrimido[4,5-d]pyrimidin-4(1H)-one] | 0.01 to 0.1 µM | 15 to 50 µL/min/mg
15 | C[C@@H]1CN(c2ccc(Nc3ncc4c(n3)N(C)CN(c3c(Cl)cccc3Cl)C4=O)cc2C(F)F)CCN1 [Example 139, (R)-3-(2,6-dichlorophenyl)-7-((3-(difluoromethyl)-4-(3-methylpiperazin-1-yl)phenyl)amino)-1-methyl-2,3-dihydropyrimido[4,5-d]pyrimidin-4(1H)-one] | 0.01 to 0.1 µM | 15 to 50 µL/min/mg
16 | COc1cc(Nc2ncc3c(n2)N(C)CN(c2c(Cl)cccc2Cl)C3=O)ccc1C1CCN(C)CC1 [Example 183, 3-(2,6-dichlorophenyl)-7-((3-methoxy-4-(1-methylpiperidin-4-yl)phenyl)amino)-1-methyl-2,3-dihydropyrimido[4,5-d]pyrimidin-4(1H)-one] | ≤ 0.01 µM | –
17 | COCc1cc(Nc2ncc3c(n2)N(C)CN(c2c(C)cccc2Cl)C3=O)ccc1N1CCN[C@H](C)C1 [Example 101, (R)-3-(2-chloro-6-methylphenyl)-7-((3-(methoxymethyl)-4-(3-methylpiperazin-1-yl)phenyl)amino)-1-methyl-2,3-dihydropyrimido[4,5-d]pyrimidin-4(1H)-one] | 0.01 to 0.1 µM | –
18 | CN1CN(c2c(Cl)cccc2Cl)C(=O)c2cnc(Nc3ccc(N4CCOCC4)c(CO)c3)nc21 [Example 73, 3-(2,6-dichlorophenyl)-7-((3-(hydroxymethyl)-4-morpholinophenyl)amino)-1-methyl-2,3-dihydropyrimido[4,5-d]pyrimidin-4(1H)-one] | 0.01 to 0.1 µM | –
19 | COc1cc(Nc2ncc3c(n2)N(C)CN(c2c(Cl)cccc2Cl)C3=O)ccc1C1CCNCC1 [Example 182, 3-(2,6-dichlorophenyl)-7-((3-methoxy-4-(piperidin-4-yl)phenyl)amino)-1-methyl-2,3-dihydropyrimido[4,5-d]pyrimidin-4(1H)-one] | ≤ 0.01 µM | –
20 | Cc1cccc(Cl)c1N1CN(C)c2nc(Nc3ccc(N4CCNCC4)cc3)ncc2C1=O [Example 92, 3-(2-chloro-6-methylphenyl)-1-methyl-7-((4-(piperazin-1-yl)phenyl)amino)-2,3-dihydropyrimido[4,5-d]pyrimidin-4(1H)-one] | 0.01 to 0.1 µM | –
21 | CN1CN(c2c(F)cccc2Cl)C(=O)c2cnc(Nc3cccc(CO)c3)nc21 [Example 56, 3-(2-chloro-6-fluorophenyl)-7-((3-(hydroxymethyl)phenyl)amino)-1-methyl-2,3-dihydropyrimido[4,5-d]pyrimidin-4(1H)-one] | ≥ 0.1 µM | –
22 | CN1CN(c2ccccc2Cl)C(=O)c2cnc(Nc3ccc(N4CC5C[C@H]4CN5)cc3)nc21 (stereo in doubt) [Example 104, 7-((4-((1S,4R)-2,5-diazabicyclo[2.2.1]heptan-2-yl)phenyl)amino)-3-(2-chlorophenyl)-1-methyl-2,3-dihydropyrimido[4,5-d]pyrimidin-4(1H)-one] | ≥ 0.1 µM | –
